Where “and” joins values, the source holds several entries; their conditions need not be identical. Identical values can stand only once.
Each molecule was assayed against T1, human transferrin receptor (hTfR) (Homo sapiens, UniProt P02786) (assay: Evaluation of molecular interaction between transferrin receptor (hTfR) and peptide using surface plasmon resonance (SPR)). Details: SPR, immobilized recombinant hTfR, single-cycle kinetics; substitution variants of 894_3151; read-out: KD.
T1 construct: made in house
Assay type: binding
How it was run: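 Single-cycle SPR kinetics, KD by least-squares sensorgram fitting, with peptide series of 100, 50, 25, 10 and 5 nM. Running buffer: 10 mM HEPES pH 8.0, 150 mM NaCl, 0.05% Tween 20, 0.1% BSA, 1.0% DMSO. Surface: hTfR dimer covalently coupled (EDC/NHS) onto Ni-NTA chip.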

T1 sequence (P02786 89-760 limits assumed): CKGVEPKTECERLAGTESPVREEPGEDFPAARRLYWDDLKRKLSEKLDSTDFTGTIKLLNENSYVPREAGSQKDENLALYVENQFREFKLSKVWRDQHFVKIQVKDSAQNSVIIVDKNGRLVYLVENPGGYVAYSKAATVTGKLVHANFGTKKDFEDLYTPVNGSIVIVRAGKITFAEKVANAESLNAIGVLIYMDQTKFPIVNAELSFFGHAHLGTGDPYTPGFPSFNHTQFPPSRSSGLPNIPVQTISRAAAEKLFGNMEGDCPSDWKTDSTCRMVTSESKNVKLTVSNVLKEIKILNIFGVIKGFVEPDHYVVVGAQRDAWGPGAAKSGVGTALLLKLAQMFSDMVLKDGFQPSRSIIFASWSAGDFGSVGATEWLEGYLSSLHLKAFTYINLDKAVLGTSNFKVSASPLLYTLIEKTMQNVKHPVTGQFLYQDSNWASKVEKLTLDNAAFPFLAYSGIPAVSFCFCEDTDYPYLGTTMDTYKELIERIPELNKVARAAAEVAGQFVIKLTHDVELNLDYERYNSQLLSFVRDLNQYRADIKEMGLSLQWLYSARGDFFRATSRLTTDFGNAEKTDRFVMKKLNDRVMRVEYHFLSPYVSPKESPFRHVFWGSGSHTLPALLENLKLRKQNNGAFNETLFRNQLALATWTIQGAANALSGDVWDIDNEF

Kd | Structure (SMILES)
1.3 nM | CC[C@H](C)[C@@H]1NC(=O)[C@H](Cc2ccc(O)cc2)NC(=O)[C@H](Cc2ccc(O)cc2)NC(=O)[C@H](CC(N)=O)NC(=O)[C@H](Cc2c[nH]c3ccccc23)NC(=O)[C@H](C(C)C)NC(=O)[C@H](Cc2ccccc2)N(C)C(=O)[C@H](C(C)C)NC(=O)[C@H](C)NC(=O)CSC[C@@H](C(=O)NCC(=O)N[C@@H](CCCCN=[N+]=[N-])C(N)=O)NC(=O)[C@H](Cc2ccc(O)cc2)N(C)C(=O)[C@H](Cc2ccc(O)cc2)NC(=O)[C@H](CCCNC(=N)N)NC(=O)[C@H](CCCNC(=N)N)NC(=O)[C@H]([C@@H](C)CC)NC1=O [compound 13]

Same assay, conditions: ratio of KD to KD of 894_3151 (SEQ ID NO: 13)

KD (Each Peptide)/KD (894_3151) | Structure (SMILES)
1.0 and 1.4 | CC[C@H](C)[C@@H]1NC(=O)[C@H](Cc2ccc(O)cc2)NC(=O)[C@H](Cc2ccc(O)cc2)NC(=O)[C@H](CC(N)=O)NC(=O)[C@H](Cc2c[nH]c3ccccc23)NC(=O)[C@H](C(C)C)NC(=O)[C@H](Cc2ccccc2)N(C)C(=O)[C@H](C(C)C)NC(=O)[C@H](C)NC(=O)CSC[C@@H](C(=O)NCC(=O)N[C@@H](CCCCN=[N+]=[N-])C(N)=O)NC(=O)[C@H](Cc2ccc(O)cc2)N(C)C(=O)[C@H](Cc2ccc(O)cc2)NC(=O)[C@H](CCCNC(=N)N)NC(=O)[C@H](CCCNC(=N)N)NC(=O)[C@H]([C@@H](C)CC)NC1=O [compound 13]

Same assay, conditions: surface plasmon resonance, binding to hTfR; KD class symbol; read-out: SPR (KD value)

Structure (SMILES) | Kd
CC[C@H](C)[C@@H]1NC(=O)[C@H](Cc2ccc(OC)cc2)NC(=O)[C@H](Cc2ccc(O)cc2)NC(=O)[C@H](CC(N)=O)NC(=O)[C@H](Cc2c[nH]c3ccccc23)NC(=O)[C@H](C(C)C)NC(=O)[C@H](Cc2cccc(Cl)c2)N(C)C(=O)[C@H](C(C)C)NC(=O)[C@H](C)NC(=O)CSC[C@@H](C(=O)NCC(=O)N[C@@H](CCCCN=[N+]=[N-])C(N)=O)NC(=O)[C@H](Cc2ccc(O)cc2)N(C)C(=O)[C@H](Cc2ccccc2)NC(=O)[C@H](CCCNC(=N)N)NC(=O)[C@H](CCCCN)NC(=O)[C@H]([C@@H](C)CC)NC1=O [compound 12] | 1 to 100 nM
CC[C@H](C)[C@@H]1NC(=O)[C@H](Cc2ccc(O)cc2)NC(=O)[C@H](Cc2ccc(O)cc2)NC(=O)[C@H](CC(N)=O)NC(=O)[C@H](Cc2c[nH]c3ccccc23)NC(=O)[C@H](C(C)C)NC(=O)[C@H](Cc2ccccc2)N(C)C(=O)[C@H](C(C)C)NC(=O)[C@H](C)NC(=O)CSC[C@@H](C(=O)NCC(=O)N[C@@H](CCCCN=[N+]=[N-])C(N)=O)NC(=O)[C@H](Cc2ccc(O)cc2)N(C)C(=O)[C@H](Cc2ccc(O)cc2)NC(=O)[C@H](CCCNC(=N)N)NC(=O)[C@H](CCCNC(=N)N)NC(=O)[C@H]([C@@H](C)CC)NC1=O [compound 13] | < 1 nM
CC[C@H](C)[C@@H]1NC(=O)[C@H](Cc2ccc(O)cc2)NC(=O)[C@H](Cc2ccc(O)cc2)NC(=O)[C@H](CC(N)=O)NC(=O)[C@H](Cc2c[nH]c3ccccc23)NC(=O)[C@H](C(C)C)NC(=O)[C@H](Cc2ccccc2)N(C)C(=O)[C@H](C(C)C)NC(=O)[C@H](C)NC(=O)CSC[C@@H](C(=O)NCCOCCOCCOCCOCCC(N)=O)NC(=O)[C@H](Cc2ccc(O)cc2)N(C)C(=O)[C@H](Cc2ccccc2)NC(=O)[C@@H](CCCNC(=N)N)NC(=O)[C@H](CCCNC(=N)N)NC(=O)[C@H]([C@@H](C)CC)NC1=O [compound 14] | 1 to 100 nM
CC[C@H](C)[C@@H]1NC(=O)[C@H](Cc2ccc(OC)cc2)NC(=O)[C@H](Cc2ccc(O)cc2)NC(=O)[C@H](CC(N)=O)NC(=O)[C@H](Cc2c[nH]c3ccccc23)NC(=O)[C@H](C(C)C)NC(=O)[C@H](Cc2ccccc2)N(C)C(=O)[C@H](C(C)C)NC(=O)[C@H](C)NC(=O)CSC[C@@H](C(=O)NCCOCCOCCOCCOCCC(N)=O)NC(=O)[C@H](Cc2ccc(O)cc2)N(C)C(=O)[C@H](Cc2ccccc2)NC(=O)[C@@H](CCCNC(=N)N)NC(=O)[C@H](CCCNC(=N)N)NC(=O)[C@H]([C@@H](C)CC)NC1=O [compound 15] | 1 to 100 nM
CC[C@H](C)[C@@H]1NC(=O)[C@H](Cc2ccc(O)cc2)NC(=O)[C@H](Cc2ccc(O)cc2)NC(=O)[C@H](CC(N)=O)NC(=O)[C@H](Cc2c[nH]c3ccccc23)NC(=O)[C@H](C(C)C)NC(=O)[C@H](Cc2ccccc2)N(C)C(=O)[C@H](C(C)C)NC(=O)[C@H](C)NC(=O)CSC[C@@H](C(=O)NCCOCCOCCOCCOCCC(N)=O)NC(=O)[C@H](Cc2ccc(O)cc2)N(C)C(=O)[C@H](Cc2ccccc2)NC(=O)[C@H](CCCNC(=N)N)NC(=O)[C@H](CCCNC(=N)N)N(C)C(=O)[C@H]([C@@H](C)CC)NC1=O [compound 16] | 1 to 100 nM
CC[C@H](C)[C@@H]1NC(=O)[C@H](Cc2ccc(OC)cc2)NC(=O)[C@H](Cc2ccc(O)cc2)NC(=O)[C@H](CC(N)=O)NC(=O)[C@H](Cc2c[nH]c3ccccc23)NC(=O)[C@H](C(C)C)NC(=O)[C@H](Cc2ccccc2)N(C)C(=O)[C@H](C(C)C)NC(=O)[C@H](C)NC(=O)CSC[C@@H](C(=O)NCCOCCOCCOCCOCCC(N)=O)NC(=O)[C@H](Cc2ccc(O)cc2)N(C)C(=O)[C@H](Cc2ccccc2)NC(=O)[C@H](CCCNC(=N)N)NC(=O)[C@H](CCCNC(=N)N)N(C)C(=O)[C@H]([C@@H](C)CC)NC1=O [compound 17] | 1 to 100 nM
CC[C@H](C)[C@@H]1NC(=O)[C@H](Cc2ccc(O)cc2)NC(=O)[C@H](Cc2ccc(O)cc2)NC(=O)[C@H](CC(N)=O)NC(=O)[C@H](Cc2c[nH]c3ccc(Cl)cc23)NC(=O)[C@H](C(C)C)NC(=O)[C@H](Cc2ccccc2)N(C)C(=O)[C@H](C(C)C)NC(=O)[C@H](C)NC(=O)CSC[C@@H](C(=O)NCCOCCOCCOCCOCCC(N)=O)NC(=O)[C@H](Cc2ccc(O)cc2)N(C)C(=O)[C@H](Cc2ccccc2)NC(=O)[C@H](CCCNC(=N)N)NC(=O)[C@H](CCCNC(=N)N)NC(=O)[C@H]([C@@H](C)CC)NC1=O [compound 18] | < 1 nM

Now from value to molecule:

Kd | Structure (SMILES)
< 1 nM | CC[C@H](C)[C@@H]1NC(=O)[C@H](Cc2ccc(OC)cc2)NC(=O)[C@H](Cc2ccc(O)cc2)NC(=O)[C@H](CC(N)=O)NC(=O)[C@H](Cc2c[nH]c3ccc(Cl)cc23)NC(=O)[C@H](C(C)C)NC(=O)[C@H](Cc2ccccc2)N(C)C(=O)[C@H](C(C)C)NC(=O)[C@H](C)NC(=O)CSC[C@@H](C(=O)NCCOCCOCCOCCOCCC(N)=O)NC(=O)[C@H](Cc2ccc(O)cc2)N(C)C(=O)[C@H](Cc2ccccc2)NC(=O)[C@H](CCCNC(=N)N)NC(=O)[C@H](CCCNC(=N)N)NC(=O)[C@H]([C@@H](C)CC)NC1=O [compound 19]
1 to 100 nM | CC[C@H](C)[C@@H]1NC(=O)[C@H](Cc2ccc(O)cc2)NC(=O)[C@H](Cc2ccc(O)cc2)NC(=O)[C@H](CC(N)=O)NC(=O)[C@H](Cc2c[nH]c3ccc(Cl)cc23)NC(=O)[C@H](C(C)C)NC(=O)[C@H](Cc2ccccc2)N(C)C(=O)[C@H](C(C)C)NC(=O)[C@H](C)NC(=O)CSC[C@@H](C(=O)NCCOCCOCCOCCOCCC(N)=O)NC(=O)[C@H](Cc2ccc(O)cc2)N(C)C(=O)[C@H](Cc2ccccc2)NC(=O)[C@@H](CCCNC(=N)N)NC(=O)[C@H](CCCNC(=N)N)NC(=O)[C@H]([C@@H](C)CC)NC1=O [compound 20]
1 to 100 nM | CC[C@H](C)[C@@H]1NC(=O)[C@H](Cc2ccc(OC)cc2)NC(=O)[C@H](Cc2ccc(O)cc2)NC(=O)[C@H](CC(N)=O)NC(=O)[C@H](Cc2c[nH]c3ccc(Cl)cc23)NC(=O)[C@H](C(C)C)NC(=O)[C@H](Cc2ccccc2)N(C)C(=O)[C@H](C(C)C)NC(=O)[C@H](C)NC(=O)CSC[C@@H](C(=O)NCCOCCOCCOCCOCCC(N)=O)NC(=O)[C@H](Cc2ccc(O)cc2)N(C)C(=O)[C@H](Cc2ccccc2)NC(=O)[C@@H](CCCNC(=N)N)NC(=O)[C@H](CCCNC(=N)N)NC(=O)[C@H]([C@@H](C)CC)NC1=O [compound 21]
< 1 nM | CC[C@H](C)[C@@H]1NC(=O)[C@H](Cc2ccc(O)cc2)NC(=O)[C@H](Cc2ccc(O)cc2)NC(=O)[C@H](CC(N)=O)NC(=O)[C@H](Cc2c[nH]c3ccc(Cl)cc23)NC(=O)[C@H](C(C)C)NC(=O)[C@H](Cc2ccc(F)cc2)N(C)C(=O)[C@H](C(C)C)NC(=O)[C@H](C)NC(=O)CSC[C@@H](C(=O)NCCOCCOCCOCCOCCC(N)=O)NC(=O)[C@H](Cc2ccc(O)cc2)N(C)C(=O)[C@H](Cc2ccccc2)NC(=O)[C@H](CCCNC(=N)N)NC(=O)[C@H](CCCNC(=N)N)NC(=O)[C@H]([C@@H](C)CC)NC1=O [compound 22]
< 1 nM | CC[C@H](C)[C@@H]1NC(=O)[C@H](Cc2ccc(OC)cc2)NC(=O)[C@H](Cc2ccc(O)cc2)NC(=O)[C@H](CC(N)=O)NC(=O)[C@H](Cc2c[nH]c3ccc(Cl)cc23)NC(=O)[C@H](C(C)C)NC(=O)[C@H](Cc2ccc(F)cc2)N(C)C(=O)[C@H](C(C)C)NC(=O)[C@H](C)NC(=O)CSC[C@@H](C(=O)NCCOCCOCCOCCOCCC(N)=O)NC(=O)[C@H](Cc2ccc(O)cc2)N(C)C(=O)[C@H](Cc2ccccc2)NC(=O)[C@H](CCCNC(=N)N)NC(=O)[C@H](CCCNC(=N)N)NC(=O)[C@H]([C@@H](C)CC)NC1=O [compound 23]
1 to 100 nM | CC[C@H](C)[C@@H]1NC(=O)[C@H](Cc2ccc(O)cc2)NC(=O)[C@H](Cc2ccc(O)cc2)NC(=O)[C@H](CC(N)=O)NC(=O)[C@H](Cc2c[nH]c3ccc(Cl)cc23)NC(=O)[C@H](C(C)C)NC(=O)[C@H](Cc2ccc(F)cc2)N(C)C(=O)[C@H](C(C)C)NC(=O)[C@H](C)NC(=O)CSC[C@@H](C(=O)NCCOCCOCCOCCOCCC(N)=O)NC(=O)[C@H](Cc2ccc(O)cc2)N(C)C(=O)[C@H](Cc2ccccc2)NC(=O)[C@@H](CCCNC(=N)N)NC(=O)[C@H](CCCNC(=N)N)NC(=O)[C@H]([C@@H](C)CC)NC1=O [compound 24]
100 to 1000 nM | CC[C@H](C)[C@@H]1NC(=O)[C@H](Cc2ccc(O)cc2)NC(=O)[C@H](Cc2ccc(O)cc2)NC(=O)[C@H](CC(N)=O)NC(=O)[C@H](Cc2c[nH]c3ccc(Cl)cc23)NC(=O)[C@H](C(C)C)NC(=O)[C@H](Cc2ccc(F)cc2)N(C)C(=O)[C@H](C(C)C)NC(=O)[C@H](C)NC(=O)CSC[C@@H](C(=O)NCCOCCOCCOCCOCCC(N)=O)NC(=O)[C@H](Cc2ccc(O)cc2)N(C)C(=O)[C@H](Cc2ccccc2)NC(=O)[C@@H](CCCNC(=N)N)NC(=O)[C@H](CCCNC(=N)N)N(C)C(=O)[C@H]([C@@H](C)CC)NC1=O [compound 25]
1 to 100 nM | CC[C@H](C)[C@@H]1NC(=O)[C@H](Cc2ccc(OC)cc2)NC(=O)[C@H](Cc2ccc(O)cc2)NC(=O)[C@H](CC(N)=O)NC(=O)[C@H](Cc2c[nH]c3ccc(Cl)cc23)NC(=O)[C@H](C(C)C)NC(=O)[C@H](Cc2ccc(F)cc2)N(C)C(=O)[C@H](C(C)C)NC(=O)[C@H](C)NC(=O)CSC[C@@H](C(=O)NCCOCCOCCOCCOCCC(N)=O)NC(=O)[C@H](Cc2ccc(O)cc2)N(C)C(=O)[C@H](Cc2ccccc2)NC(=O)[C@@H](CCCNC(=N)N)NC(=O)[C@H](CCCNC(=N)N)NC(=O)[C@H]([C@@H](C)CC)NC1=O [compound 26]
1 to 100 nM | CC[C@H](C)[C@@H]1NC(=O)[C@H](Cc2ccc(OC)cc2)NC(=O)[C@H](Cc2ccc(O)cc2)NC(=O)[C@H](CC(N)=O)NC(=O)[C@H](Cc2c[nH]c3ccc(Cl)cc23)NC(=O)[C@H](C(C)C)NC(=O)[C@H](Cc2ccc(F)cc2)N(C)C(=O)[C@H](C(C)C)NC(=O)[C@H](C)NC(=O)CSC[C@@H](C(=O)NCCOCCOCCOCCOCCC(N)=O)NC(=O)[C@H](Cc2ccc(O)cc2)N(C)C(=O)[C@H](Cc2ccccc2)NC(=O)[C@@H](CCCNC(=N)N)NC(=O)[C@H](CCCNC(=N)N)N(C)C(=O)[C@H]([C@@H](C)CC)NC1=O [compound 27]

— patent US20260116920A1, “HUMAN TRANSFERRIN RECEPTOR BINDING PEPTIDE” (PEPTIDREAM INC., priority 2021, published 2026)
